Laboratory results: patent US8003688B2, “Method of treating symptoms of common cold, allergic rhinitis and infections relating to the respiratory tract” (ImmuPharm Aps, priority 2000, dated 2011)

Legend:
[1] = tested on: Rhino Virus (1A, 15 or 39); assay: Potentiation of interferon antiviral activity vs. rhino virus in WISH cells; format: cell-based, rhinovirus; conditions: Troxerutin levels below 2.5 mg/ml added with 2-fold dilutions of interferon
Protocol: 3.000 WISH cells were seeded in a microtray and on the following morning, the medium was replaced with 2-fold dilutions (from a 0-30 units/ml stock solution) of HuIFN-α-2b (Intron A) in fresh medium comprising 2% serum. After incubation overnight, the medium was replaced with fresh medium comprising challenge virus and incubated at 33° C., 5% CO2 for 3-5 days and processed further as described in Example 2.
(§1) An experiment similar to Example 3 was carried out in which various, but constant concentrations of either Troxerutin or Veneruton or other relevant derivatives were added together with the 2-fold dilutions of interferon to WISH cells. A typical example from this series of experiments yielded no potentiation of the interferon system, (<1%) at all at Troxerutin levels below 2.5 mg/ml. Troxerutin concentrations higher than 2.5 mg/ml are toxic to the cells.

WISH cells = assay: Toxicity to WISH cells; format: cell-based
Protocol: as §1

[2] = tested on: rhinovirus (1A, 15 or 39); assay: Antiviral activity against rhinovirus in WISH cells measured via the MTS-system; format: cell-based; conditions: challenge virus, MTS read-out, Quercetin at levels not toxic to the cells
Protocol: Rhinovirus 1A, rhinovirus 15 and rhinovirus 39 were titrated according to the tetra zolium salt (MTS)-method (Berg et al., 1989; Berg and Owen, 2001a, Hansen et al., 1989). WISH cells were seeded in a micro tray at 3000 cells per well and incubated at 37° C., 5% CO2 overnight; the following morning the medium Was replaced with 10-fold dilutions of either rhinovirus 1A, rhinovirus 15 or rhinovirus 39, respectively, in fresh medium and the trays were incubated 4-5 days at 33° C.; a microscopical examination confirmed that the CytoPathogenic Effect (CPE) was fully developed (CPE equal to 100%). […] To quantitate the CPE in terms of % destruction, MTS (Berg and Owen, 2001a) was added to all cultures and after 3 h incubation at 37° C. (without CO2) the trays were read in a scanner as previuosly described (Berg et al, 1989, Hansen et al., 1989). […]
WISH cells were seeded in wells in a microtray and incubated for 24 h at 34° C., 5% CO2; the medium was replaced with fresh medium comprising 2-fold dilutions of ZnGluconate (diluted 1:10 from a 1% stock dilutions) and incubated further for […] at 33° C., 5% CO2; on the following day challenge virus was added and after 3-5 days at 33° C., 5% , CO2, MTS was added and the microtray was measured in an OD-scanner (Berg et al., 1989; Hansen et al., 1989). […]

Structure (SMILES) | potentiation of the interferon system [1] | concentrations toxic to the cells (WISH cells) | protection against rhinovirus [2]
C[C@@H]1O[C@@H](OC[C@H]2O[C@@H](Oc3c(-c4ccc(OCCO)c(OCCO)c4)oc4cc(OCCO)cc(O)c4c3=O)[C@H](O)[C@@H](O)[C@@H]2O)[C@H](O)[C@H](O)[C@H]1O [Troxerutin, troxerutin] | < 1% | higher than 2.5 mg/ml | 
O=C([O-])[C@H](O)[C@@H](O)[C@H](O)[C@H](O)CO.O=C([O-])[C@H](O)[C@@H](O)[C@H](O)[C@H](O)CO.[Zn+2] [ZnGluconate] |  |  | < 2%
